For assay [1], the system named is SARS-CoV-2-induced IL-1β P17 release in Calu-3 cells. It is filed as cell-based.
The test system of assay [2] is SARS-CoV-2-trVLPs. The format is cell-based, SARS-CoV-2 (Wuhan-Hu-1 strain). The settings on record: ratio of CC50 to antiviral EC50, Caco-2-N cells.
Assay [3] deals with secretion of the matured form of IL-1β (P17) in SFTSV-infected THP-1 macrophages. Kind of assay: cells. The settings on record: for inhibition at 10 µM: Homo sapiens, THP-1, 48 h, read-out: inhibition rate of IL-1β (P17) secretion. The format is cell-based.
Assay [4] deals with PDE4 (catalytic domain of human PDE4D) (Homo sapiens, UniProt Q08499). Put plainly: PDE4 inhibition assay. The format is biochemical.
Sequence of PDE4 (catalytic domain of human PDE4D) (Q08499 388-715): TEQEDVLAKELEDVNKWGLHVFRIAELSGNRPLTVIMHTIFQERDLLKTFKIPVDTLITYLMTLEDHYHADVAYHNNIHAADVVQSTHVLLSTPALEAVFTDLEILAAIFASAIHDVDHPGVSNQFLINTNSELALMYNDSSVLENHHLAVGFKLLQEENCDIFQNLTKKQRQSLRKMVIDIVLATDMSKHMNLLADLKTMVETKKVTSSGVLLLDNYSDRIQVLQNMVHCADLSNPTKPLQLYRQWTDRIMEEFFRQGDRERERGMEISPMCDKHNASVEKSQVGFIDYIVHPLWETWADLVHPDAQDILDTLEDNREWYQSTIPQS
Assay [5] deals with SARS-CoV-2 polymerase complex (RdRp; nsp12, nsp7-nsp8) (Severe acute respiratory syndrome coronavirus 2, UniProt P0DTD1). Kind of assay: biochemical. Conditions: RdRp inhibition IC50, in vitro polymerase activity assay.

Where only a bound is given, the exact number is not on record here.

This note sets out measurements from publication PMC10160982 (Proceedings of the National Academy of Sciences of the …, 2023).

In the case of `COc1cc(O)ccc1/C=C/C(=O)c1ccc(O)cc1` [Echinatin], the “reduction of SARS-CoV-2-induced IL-1β P17 release, dose dependence” value in assay [1] is “dose-dependent effects”. The “selectivity index (SI = CC50/EC50)” value in assay [2] is > 5.0. Also, in assay [3], the “anti-inflammation activity (inhibition of P17 secretion), dose dependence” value is “dose-dependent manner” and the inhibition at 10 µM is > 90%.

Turning to `Cc1cc(O)c2c(c1)C(=O)c1cc(O)cc(O)c1C2=O` [Emodin], the “selectivity index (SI = CC50/EC50)” value in assay [2] is listed as > 5.0.

For `CC(C)=CCc1cc(-c2coc3cc(O)cc(O)c3c2=O)cc(O)c1O` [Glycyrrhisoflavone], the “reduction of SARS-CoV-2-induced IL-1β P17 release, dose dependence” value in assay [1] was “dose-dependent effects”. For the same compound, the “selectivity index (SI = CC50/EC50)” value in assay [2] is > 5.0. In addition, the IC50 in assay [4] came to 1.29 µM. Also, in assay [5], the IC50 came out at 28.9 µM. For the same compound, in assay [3], the “anti-inflammation activity (inhibition of P17 secretion), dose dependence” value is “dose-dependent manner” and the inhibition at 10 µM is > 90%.

For the compound `C=CCc1ccc(O)c(-c2cc(CC=C)ccc2O)c1` [Magnolol], the “selectivity index (SI = CC50/EC50)” value in assay [2] is > 5.0.

On to `O=c1c(O)c(-c2ccc(O)c(O)c2)oc2cc(O)cc(O)c12` [Quercetin], for which the “selectivity index (SI = CC50/EC50)” value in assay [2] is given as > 5.0. In assay [4], this compound showed an IC50 of 17.4 µM.

For orientation: inhibition means how much of the control response was suppressed. One may read the IC50 as the concentration needed to halve the response being measured. A high value points to weaker potency in that assay.
